We go through eleven molecules from PubChem BioAssay (NCI).

Some test systems named below: SK-MEL-5 melanoma; UO-31 renal; NCI/ADR-RES ovarian; SNB-75 CNS; SF-539 CNS; TK-10 renal; UACC-62 melanoma; DU-145 prostate; A549 NSCLC; RPMI-8226 leukemia.
What all share (assay): DTP human tumour cell line panel, 48 h

Molecules are shown by their SMILES.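 Values below derive from 48-hour exposures of cells grown in 96-well plates, with endpoints linearly interpolated between the two concentrations bracketing the appropriate inhibition level. GI50 marks 50% less growth. TGI is the concentration that stops growth completely.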

The GI50 is the concentration at which growth is held to half of that of the control. By TGI is commonly meant the concentration at which net growth stops. Read a low TGI as greater sensitivity of the cells. As to `CC1(C)CCC[C@]23C(=O)O[C@](O)(C(=O)C4=C[C@@](C)(/C=C/CCCc5ccc6ccc7cccc8ccc5c6c78)CC[C@@]42O)[C@@H]13`, the GI50 in the assay with SK-MEL-5 melanoma is 0.185 µM; with UO-31 renal it was 0.156 µM; with NCI/ADR-RES ovarian, 0.221 µM; in the assay on SNB-75 CNS, 0.149 µM; in the assay with SF-539 CNS, 0.17 µM; in the assay with TK-10 renal, 0.196 µM. For the same molecule, the GI50 with UACC-62 melanoma was 0.176 µM; in the assay on DU-145 prostate, 0.179 µM; with A549 NSCLC it was 0.202 µM; in the assay on RPMI-8226 leukemia, 0.196 µM. The TGI worked out at 0.327 µM with SK-MEL-5 melanoma; 0.291 µM in the assay with UO-31 renal; 0.532 µM in the assay with NCI/ADR-RES ovarian; 0.284 µM in the assay on SNB-75 CNS; 0.322 µM with SF-539 CNS; 0.423 µM in the assay with TK-10 renal. Besides, the TGI came to 0.343 µM in the assay with UACC-62 melanoma, 0.326 µM in the assay on DU-145 prostate, 0.678 µM with A549 NSCLC and 0.571 µM in the assay on RPMI-8226 leukemia.
As for `COc1cc(C)c(C(=O)O[C@H]2[C@H](O[C@H]3[C@@H](O)COC(O[C@H]4C[C@H]5[C@@H]6CC=C7C[C@@H](O)CC[C@]7(C)[C@H]6CC[C@]5(C)[C@H]4[C@H](C)C(=O)CCC(C)C)[C@@H]3OC(C)=O)OC[C@@H](O)[C@@H]2O)c(C)c1` (stereo partly drawn), the GI50 in the assay with SK-MEL-5 melanoma was below 0.01 µM; in the assay on UO-31 renal, below 0.01 µM; in the assay with NCI/ADR-RES ovarian it was 4.79 µM; in the assay on SNB-75 CNS, below 0.01 µM; in the assay on SF-539 CNS, below 0.01 µM; in the assay on TK-10 renal it was 0.704 µM. Further, the GI50 is below 0.01 µM in the assay with UACC-62 melanoma, 1.52 µM with DU-145 prostate, below 0.01 µM with A549 NSCLC and below 0.01 µM in the assay with RPMI-8226 leukemia. For the same molecule, the TGI in the assay with SK-MEL-5 melanoma worked out at 0.0181 µM; with UO-31 renal it was 0.0584 µM; in the assay with NCI/ADR-RES ovarian, 31.2 µM; in the assay on SNB-75 CNS it was 7.71 µM; with SF-539 CNS, 0.0137 µM; in the assay with TK-10 renal it was 16.6 µM. In addition, the TGI in the assay with UACC-62 melanoma is below 0.01 µM; in the assay on DU-145 prostate, 21.9 µM; in the assay with A549 NSCLC, 30.5 µM; in the assay on RPMI-8226 leukemia, below 0.01 µM.
With `S=c1nc(-c2ccccc2)oc(=NC2CCCCC2)n1C1CCCCC1`, the GI50 in the assay on SK-MEL-5 melanoma is 2.62 µM; in the assay on UO-31 renal, above 100 µM; in the assay on NCI/ADR-RES ovarian, 5.01 µM; with SNB-75 CNS it was 4.65 µM; in the assay on SF-539 CNS, 5.73 µM; with TK-10 renal it was 4.31 µM. Further, the GI50 was 5.92 µM in the assay with UACC-62 melanoma, 3.26 µM in the assay with DU-145 prostate, 2.26 µM in the assay with A549 NSCLC and 2.69 µM with RPMI-8226 leukemia. In addition, the TGI in the assay on SK-MEL-5 melanoma was 9.87 µM; in the assay with UO-31 renal, above 100 µM; in the assay with NCI/ADR-RES ovarian, 23.4 µM; with SNB-75 CNS it was 17.5 µM; in the assay with SF-539 CNS it was 20.4 µM; in the assay on TK-10 renal it was 8.57 µM. For the same molecule, the TGI was found to be 21 µM with UACC-62 melanoma, 10.3 µM in the assay on DU-145 prostate, 8.21 µM in the assay on A549 NSCLC and 6.51 µM with RPMI-8226 leukemia.
As to `C=C1CCC2C3(C)COC(c4ccc(NC(C)=O)cc4)OC3CCC2(C)C1C/C=C1/C(=O)OCC1O` (stereo not drawn), the GI50 in the assay on SK-MEL-5 melanoma is 3.57 µM; with UO-31 renal it was 5.43 µM; with NCI/ADR-RES ovarian, 7.37 µM; in the assay on SNB-75 CNS, above 100 µM; in the assay with SF-539 CNS, above 100 µM; in the assay on TK-10 renal it was 6.25 µM. Moreover, the GI50 in the assay on UACC-62 melanoma was above 100 µM; in the assay with DU-145 prostate it was above 100 µM; in the assay with A549 NSCLC it was 5.03 µM; with RPMI-8226 leukemia, 0.985 µM. The TGI in the assay on SK-MEL-5 melanoma, with UO-31 renal, with NCI/ADR-RES ovarian, in the assay on SNB-75 CNS, in the assay with SF-539 CNS and in the assay with TK-10 renal was above 100 µM each time. The TGI was above 100 µM in the assay on UACC-62 melanoma, above 100 µM in the assay with DU-145 prostate, above 100 µM in the assay on A549 NSCLC and 8.32 µM with RPMI-8226 leukemia.
As to `COc1ccc(/C(C)=C(\c2ccc(Cl)cc2)c2ccc(OCCN3CCCC3)cc2)cc1`, the GI50 in the assay with SK-MEL-5 melanoma was 1.26 µM; with UO-31 renal it was 2.88 µM; in the assay on NCI/ADR-RES ovarian it was 4.54 µM; in the assay on SNB-75 CNS, 4.29 µM; with SF-539 CNS, 4.32 µM; in the assay with TK-10 renal, 5.49 µM. The GI50 is 2.15 µM with UACC-62 melanoma, 4.89 µM in the assay with DU-145 prostate, 3.97 µM in the assay on A549 NSCLC and 3.66 µM in the assay with RPMI-8226 leukemia. In addition, the TGI in the assay on SK-MEL-5 melanoma was found to be 4.64 µM; with UO-31 renal it was 7.12 µM; in the assay with NCI/ADR-RES ovarian, 9.36 µM; with SNB-75 CNS, 8.58 µM; in the assay on SF-539 CNS, 8.59 µM; with TK-10 renal it was 10.4 µM. The TGI in the assay on UACC-62 melanoma turned out to be 6.53 µM; in the assay on DU-145 prostate, 9.4 µM; in the assay on A549 NSCLC, 8.43 µM; with RPMI-8226 leukemia, 10 µM.
On to `CC(C)C[C@H](NC(=O)[C@H](CCc1ccccc1)NC(=O)CN1CCOCC1)C(=O)N[C@@H](Cc1ccccc1)C(=O)N[C@@H](CC(C)C)C(=O)[C@@]1(C)CO1`, for which the GI50 is below 0.0136 µM with SK-MEL-5 melanoma; 0.116 µM in the assay with UO-31 renal; 0.636 µM in the assay on NCI/ADR-RES ovarian; 0.018 µM with SNB-75 CNS; below 0.0133 µM in the assay with SF-539 CNS; 0.0144 µM in the assay with TK-10 renal. For the same molecule, the GI50 in the assay on UACC-62 melanoma was 0.033 µM; with DU-145 prostate, 0.0183 µM; with A549 NSCLC, 0.0203 µM; in the assay with RPMI-8226 leukemia, below 0.01 µM. The TGI was 0.0434 µM in the assay with SK-MEL-5 melanoma; 0.575 µM in the assay with UO-31 renal; above 100 µM in the assay on NCI/ADR-RES ovarian; 0.0509 µM in the assay on SNB-75 CNS; 0.0367 µM with SF-539 CNS; 0.0934 µM with TK-10 renal. Further, the TGI in the assay with UACC-62 melanoma was found to be 0.114 µM; in the assay with DU-145 prostate, 1.37 µM; in the assay with A549 NSCLC, 0.204 µM.
As to `C#CCN1C(=O)/C(=c2\sc3n(c2=O)C2C(NN=3)N(CC)C(=O)N2CC)c2ccccc21` (stereo not drawn), the GI50 is 0.529 µM in the assay on SK-MEL-5 melanoma; 0.673 µM in the assay with UO-31 renal; 0.712 µM in the assay on NCI/ADR-RES ovarian; 0.25 µM in the assay with SNB-75 CNS; 0.295 µM in the assay on SF-539 CNS; 14.1 µM with TK-10 renal. Besides, the GI50 was 0.453 µM in the assay with UACC-62 melanoma, 1.04 µM in the assay with DU-145 prostate, 0.968 µM with A549 NSCLC and 0.375 µM in the assay with RPMI-8226 leukemia. The TGI was above 85.9 µM in the assay on SK-MEL-5 melanoma; above 100 µM with UO-31 renal; 21.9 µM in the assay on NCI/ADR-RES ovarian; 0.997 µM in the assay on SNB-75 CNS; 1.4 µM in the assay on SF-539 CNS; 51.4 µM in the assay on TK-10 renal. Further, the TGI in the assay with UACC-62 melanoma was above 74.1 µM; in the assay on DU-145 prostate, above 38.6 µM; with A549 NSCLC it was above 100 µM.
Take `O=C(/C=C/c1ccc(C(F)(F)F)cc1)c1ccc(Nc2nc(NCCO)nc(NCCO)n2)cc1`: the GI50 is 3.12 µM with SK-MEL-5 melanoma; 1.54 µM in the assay with UO-31 renal; 15.2 µM with NCI/ADR-RES ovarian; 2.31 µM with SNB-75 CNS; 1.68 µM in the assay with SF-539 CNS; 2.93 µM in the assay with TK-10 renal. Besides, the GI50 in the assay with UACC-62 melanoma was 2.13 µM; in the assay on DU-145 prostate, 4.03 µM; in the assay with A549 NSCLC it was 2.91 µM; in the assay with RPMI-8226 leukemia it was 2.12 µM. Moreover, the TGI came to 10.5 µM in the assay with SK-MEL-5 melanoma; 4.33 µM with UO-31 renal; 35 µM in the assay on NCI/ADR-RES ovarian; 13.6 µM in the assay with SNB-75 CNS; 3.38 µM with SF-539 CNS; 14.5 µM in the assay with TK-10 renal. The TGI with UACC-62 melanoma is 6.03 µM; in the assay on DU-145 prostate, 14.3 µM; in the assay with A549 NSCLC, 10.8 µM; in the assay on RPMI-8226 leukemia, 5.23 µM.
In the case of `Nc1ncnc2c1c(C(F)(F)F)cn2[C@@H]1O[C@H](CO)[C@@H](O)[C@H]1O`, the GI50 with SK-MEL-5 melanoma was 0.402 µM; with UO-31 renal, 0.928 µM; with NCI/ADR-RES ovarian, 0.363 µM; with SNB-75 CNS it was 0.708 µM; with SF-539 CNS, 0.642 µM; with TK-10 renal, 0.926 µM. In addition, the GI50 was 0.0601 µM with UACC-62 melanoma, 0.0945 µM in the assay with DU-145 prostate, 0.324 µM in the assay on A549 NSCLC and 0.151 µM with RPMI-8226 leukemia. Further, the TGI in the assay on SK-MEL-5 melanoma is 5.02 µM; in the assay on UO-31 renal, 5.01 µM; in the assay on NCI/ADR-RES ovarian, above 100 µM; with SNB-75 CNS, 3.62 µM; in the assay on SF-539 CNS, 2.73 µM; in the assay with TK-10 renal, above 100 µM. The TGI is 1.78 µM with UACC-62 melanoma, above 100 µM in the assay with DU-145 prostate, above 56.1 µM in the assay on A549 NSCLC and 1.82 µM with RPMI-8226 leukemia.
As to `CCOC(=O)c1sc(-c2ccc(OS(=O)(=O)c3cccs3)c(C=O)c2)nc1C`, the GI50 was 1.56 µM in the assay with SK-MEL-5 melanoma; 1.73 µM in the assay with UO-31 renal; 1.8 µM in the assay with NCI/ADR-RES ovarian; 1.57 µM in the assay with SNB-75 CNS; 1.82 µM in the assay with SF-539 CNS; 1.27 µM in the assay with TK-10 renal. The GI50 in the assay on UACC-62 melanoma is 1.43 µM; in the assay with DU-145 prostate, 2.43 µM; in the assay with A549 NSCLC, 2.3 µM; in the assay with RPMI-8226 leukemia, 1.01 µM. The TGI in the assay with SK-MEL-5 melanoma was determined as 3 µM; with UO-31 renal, 5.13 µM; in the assay with NCI/ADR-RES ovarian it was 6.17 µM; in the assay on SNB-75 CNS, 4.07 µM; in the assay with SF-539 CNS, 3.42 µM; in the assay with TK-10 renal, 4.33 µM. Besides, the TGI in the assay with UACC-62 melanoma worked out at 2.92 µM; with DU-145 prostate, 6.78 µM; in the assay on A549 NSCLC, 6.72 µM; in the assay on RPMI-8226 leukemia, 4.72 µM.
`C(=N\Nc1nnc2c(n1)[nH]c1ccccc12)/c1cccnc1`: the TGI with SK-MEL-5 melanoma, in the assay on UO-31 renal, with NCI/ADR-RES ovarian, in the assay with SNB-75 CNS, in the assay with SF-539 CNS and with TK-10 renal was above 100 µM throughout. Besides, the TGI in the assay on UACC-62 melanoma, in the assay on DU-145 prostate, in the assay on A549 NSCLC and in the assay on RPMI-8226 leukemia was above 100 µM throughout.
